In one test the test system is IL-17. The experiment in a line: ELISA of supernatant from activated human PBMC cultures: IL-17. Type of test: cell-based. Conditions: control 0%. Here is the method:
(§1) Human PBMCs and mouse splenocyte in vitro stimulation and treatment: Human peripheral blood mononuclear cells (PBMCs) and mouse splenocytes from donors were stimulated in vitro with anti-CD3 and anti-CD28 antibodies. The stimulated cells were simultaneously treated with compounds for 96 hours. The T cells were profiled for different cell surface and intracellular markers and proliferation by flow cytometry.
(§2) ELISA assay: Supernatant from activated human PBMC cultures described above was separated from cells at the end of culture time. Key cytokines (IL-6, IFN-γ, IL-17) were quantified using sandwich ELISA reagents set (Diaclone) following manufacturer's instruction manual.
In general terms: In an ELISA, binding on a coated surface is turned into a signal by an enzyme label.

In a further test the test system is IFNG. Kind of test: ELISA of supernatant from activated human PBMC cultures: IFNG. Type of test: cell-based. Conditions: control 0%. Here is the method: as §1, §2
For the next test, the system named is IL-6. The experiment in a line: ELISA of supernatant from activated human PBMC cultures: IL-6. Type of test: cell-based. Conditions: control 0%. As to the method: as §1, §2
The next test relates to activated CD4 T cells. Kind of test: Cell proliferation assay (Cell trace violet), activated CD4 T cells. Type of test: cell-based. Conditions: control 0%. As to the method:
(§3) Following PBMC injections, mice were treated with vehicle or 6-(4-tert-butylphenoxy)pyridin-3-amine or Ruxolitinib starting at day 0. Mice were monitored from 60-85 days for symptoms of GvHD and scored according to a standard clinical scoring system for GvHD (Naserian et al., 2018) (see table 1) and a cumulative clinical score was obtained by addition of clinical score for individual parameters. A maximum score of 6 is measured when reaching endpoint. Cell proliferation assay: The effect of compounds on T cell proliferation was quantified using Cell trace violet (CTV). PBMCs/splenocytes were incubated with CTV for 20 minutes at 37° C. Cells were washed twice with RPMI complete medium. CTV labelled cells were stimulated with anti-CD3 and anti-CD28 antibodies and treated with control or compounds and cultured at 37° C. for 96 hours. The cell division index was measured by flow cytometry.
(§4) Flow cytometry analysis: Flow cytometry analysis was performed to quantify cell surface and intracellular markers expression and measure cell division index.

The next test deals with activated CD8 T cells. The experiment in a line: Cell proliferation assay (Cell trace violet), activated CD8 T cells. Type of test: cell-based. To be noted: control 0%. As to the method: as §3, §4
Another test concerns Treg cells. The experiment in a line: Treg expansion in activated human PBMC cultures (anti-CD3/anti-CD28, flow cytometry). Type of test: cell-based. Conditions: anti-CD3 and anti-CD28, 96 hours, control 0%. As to the method: as §1, §4
Viability staining: Cells were transferred into a 96 well conical bottom plate and washed with serum free PBS1×. Cells were incubated with Zombie NIR (Biolegend #423105)+FC block ([…]) for 20 minutes at 4° C. Cells were washed with staining medium (SM) (1×HBSS, 2.5 mM EDTA, 2% NBS
Cell surface marker staining: Cells were stained with antibodies against cell surface markers (CD3, CD4, CD8, CD25, Biolegend or ThermoFisher) for 20 minutes at 4° C. Cells were washed with SM before continuing with nuclear staining.
FOXP3 nuclear staining: Cells were fixed and permeabilized with Foxp3 Transcription Factor Staining Buffer Set (ThermoFisher #00-5523) for 20 minutes at room temperature. […] Results are finally analysed with the software FlowJo v.10.7.1.

For test [1], the system named is NSG mice injected with human PBMCs (GvHD). The experiment in a line: Humanized GvHD mouse model, ex vivo pre-treated PBMCs plus in vivo treatment. On the set-up: GvHD clinical score: Body weight loss (D59) / GvHD clinical score: Paleness (D59) / GvHD clinical score: Posture (D59) / GvHD clinical score: Skin integrity (day 45) / GvHD clinical score: Activity score / GvHD clinical score: Fur texture (day 45): scale not given here. Conditions: for GvHD clinical score: Body weight loss (D59): label = ex vivo PBMC treatment (7 hrs)/in vivo treatment (3 days), DMSO/Vehicle 2.0; for GvHD clinical score: Paleness (D59) / GvHD clinical score: Activity score / GvHD clinical score: Skin integrity (day 45) / GvHD clinical score: Posture (D59) / GvHD clinical score: Fur texture (day 45) / Cumulative GvHD score: label = ex vivo PBMC treatment/in vivo treatment; for GvHD clinical score: Paleness (D59): DMSO/Vehicle 0.9; for GvHD clinical score: Activity score: DMSO/Vehicle 1.0; for GvHD clinical score: Skin integrity (day 45): DMSO/Vehicle 1.25; for GvHD clinical score: Posture (D59): DMSO/Vehicle 1.3; for GvHD clinical score: Fur texture (day 45): DMSO/Vehicle 1.35; for Cumulative GvHD score: sum of individual scores, DMSO/Vehicle 7.8. Here is the method:
Humanized GvHD mouse model: 6-8 weeks old NSG mice were intraperitoneally injected with 10 million human peripheral blood mononuclear cells (PBMCs) as below:
A cumulative GvHD clinical score was calculated by addition of scores for individual parameters (e.g. cumulative score=BWL+posture+activity+fur texture+skin integrity+paleness).
Ex-vivo pre-treatment of PBMCs and in-vivo treatment of mice: Human PBMCs were ex-vivo treated with either DMSO or 6-(4-tert-butylphenoxy)pyridin-3-amine and then intraperitoneally injected into NSG mice. Mice were in vivo treated with different compounds as below: • i. DMSO ex vivo hPBMCs treatment (7 hrs), plus vehicle in vivo treatment • ii. DMSO ex vivo hPBMCs treatment (7 hrs), plus 6-(4-tert-butylphenoxy)pyridin-3-amine in vivo treatment for 3 days • iii. 6-(4-tert-butylphenoxy)pyridin-3-amine ex vivo hPBMCs treatment (7 hrs), plus 6-(4-tert-butylphenoxy)pyridin-3-amine in vivo treatment for 3 days • iv. DMSO ex vivo PBMCs treatment (7 hrs) plus Ruxolitinib in vivo treatment for 3 days • v. 6-(4-tert-butylphenoxy)pyridin-3-amine ex vivo hPBMCs treatment (7 hrs), plus Ruxolitinib in vivo treatment for 3 days
as §3

The subject of test [2] is irradiated Balb/c mice transplanted with TCD-BM + splenocytes from C57Bl6 mice (GvHD). Kind of test: Allogeneic bone marrow transplant GvHD model. Type of test: in vivo, mouse. Conditions: allo-bone marrow transplant, compared with vehicle. Here is the method:
Allogeneic Bone marrow transplant: Recipient Balb/c mice were irradiated twice 3.75Gy (T=0 and T=4 h) in an X-ray source irradiator before transplantation at T=8 h. Treatment with antibiotics (Nopil) and analgesic (Dafalgan) was supplemented to drinking water 4 days before injection. Irradiated recipient Balb/c mice were transplanted with 5 million T cell depleted bone marrow+1 million splenocytes. Allogeneic recipient animals were treated with vehicle or 6-(4-tert-butylphenoxy)pyridin-3-amine subcutaneously at 20 mg/kg for two days immediately after allo-BM transplant, given a 10 days treatment holiday to recover body weight loss due to whole body irradiation and then treatment continued at 20 mg/kg. […] Animals were monitored for symptoms of GvHD development (severe body weight loss, alopecia and diarrhea.
Graft vs host disease (GvHD) is an example of alloimmune disease that develops following allo-hematopoetic stem cell transplant (allo-HSCT) in humans. The activity of 6-(4-tert-butylphenoxy)pyridin-3-amine and a calcineurin inhibitor Cyclosprin A was investigated in a mouse model of GvHD following allo-bone marrow transplant. In this model, T cell depleted bone marrow cells (TCD-BM)+splenocytes from C57Bl6 mice were transplanted into irradiated Balb/c mice.

In the case of `CNc1ccc(Oc2ccc(-c3cncs3)cc2)nc1` [N-methyl-6-(4-(thiazol-5-yl)phenoxy)pyridin-3-amine], the “Percentage downregulation of IL-17” value with IL-17 came out at 85%. Also, the “Percentage downregulation of IFNG” value with IFNG stood at 38%. The “Percentage downregulation of IL-6” value with IL-6 is listed as 80%.

Consider `Cc1nc(Oc2ccc(-c3ccc(F)cc3)cc2)ccc1N` [6-((4′-fluoro-[1,1′-biphenyl]-4-yl)oxy)-2-methylpyridin-3-amine], for which the “Percentage downregulation of IL-17” value in the test on IL-17 came to 78%. The “Percentage downregulation of IFNG” value with IFNG came out at 41%. Moreover, the “Percentage inhibition of CD4 T cells (proliferation)” value in the test on activated CD4 T cells was 40%. Further, in the test on activated CD8 T cells, the “Percentage inhibition of CD8 T cells (proliferation)” value was found to be 74%. Further, the “Percentage downregulation of IL-6” value with IL-6 came to 66%. Further, the “expansion of Treg cells” value with Treg cells worked out at 120%.

Take `CC(C)(C)c1ccc(Oc2ccc(N)cn2)cc1` [DMSO/6-(4-tert-butylphenoxy)pyridin-3-amine]: in test [1], the “GvHD clinical score: Body weight loss (D59)” value came to 1.35, the “GvHD clinical score: Paleness (D59)” value is recorded as 1.2, the “GvHD clinical score: Activity score” value turned out to be 0.5 and the “GvHD clinical score: Skin integrity (day 45)” value is listed as 0.65. For the same molecule, in test [1], the “GvHD clinical score: Posture (D59)” value was 1.3, the “GvHD clinical score: Fur texture (day 45)” value was 0.95 and the “Cumulative GvHD score” value is given as 5.95.

As for `CC(C)(C)c1ccc(Oc2ccc(N)cn2)cc1` [6-(4-tert-butylphenoxy)pyridin-3-amine/6-(4-tert-butylphenox], in test [1], the “GvHD clinical score: Body weight loss (D59)” value is 0.9, the “GvHD clinical score: Paleness (D59)” value amounted to 1.2, the “GvHD clinical score: Activity score” value came to 0.5 and the “GvHD clinical score: Skin integrity (day 45)” value is given as 0.7. In addition, in test [1], the “GvHD clinical score: Posture (D59)” value was 0.7, the “GvHD clinical score: Fur texture (day 45)” value turned out to be 1.2 and the “Cumulative GvHD score” value came to 5.2.

As to `N#CC[C@H](C1CCCC1)n1cc(-c2ncnc3[nH]ccc23)cn1` [DMSO/Ruxolitinib, Ruxolitinib, reference compound], in test [1], the “GvHD clinical score: Body weight loss (D59)” value was 1.6, the “GvHD clinical score: Paleness (D59)” value amounted to 0.9, the “GvHD clinical score: Activity score” value was 0.9 and the “GvHD clinical score: Skin integrity (day 45)” value worked out at 1.2. Moreover, in test [1], the “GvHD clinical score: Posture (D59)” value came to 1.2, the “GvHD clinical score: Fur texture (day 45)” value turned out to be 1.1 and the “Cumulative GvHD score” value was determined as 6.9.

For the molecule Cyclosporin A [reference compound], the “prevention of GvHD development (in words)” value in test [2] is “did not perform better than vehicle treated animals”.

Source of the values: US20240269120A1, “Method for Treating an Autoimmune and Inflammatory Disease” (Cellestia Biotech AG, priority 2021, published 2024).
